In patent US20210045385A1, “PYRIDAZINONE-SUBSTITUTED KETOXIMES AS HERBICIDES” (FMC Corporation, priority 2018, published 2021):

Key:
Assay type in all cases: in vivo
[1] = test system: barnyardgrass (Echinochloa crus-galli); assay: Test C preemergence, visual plant response rating
How it was run: (§1)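 Compounds in a non-phytotoxic solvent with surfactant were applied as a directed soil spray preemergence or to 2–10 cm, one- to two-leaf plants postemergence, in loam–sand soil. After about 10 d in a greenhouse, injury was visually rated against untreated controls on a 0–100 scale (100 = complete control).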

[2] = test system: ragweed (common ragweed, Ambrosia artemisiifolia); assay: Test C preemergence, visual plant response rating
How it was run: as §1

[3] = test system: foxtail, green (green foxtail, Setaria viridis); assay: Test C preemergence, visual plant response rating
How it was run: as §1

kochia (Bassia scoparia) [4] = assay: Test C preemergence, visual plant response rating
How it was run: as §1

[5] = test system: pigweed (Amaranthus retroflexus); assay: Test C preemergence, visual plant response rating
How it was run: as §1

[6] = test system: Italian ryegrass (Lolium mutiflorum); assay: Test C preemergence, visual plant response rating
How it was run: as §1

[7] = test system: sedge umbrella (small-flower umbrella sedge, Cyperus difformis); assay: Test D flooded paddy test, visual plant response rating; conditions: 250 g ai/ha, scale 0 to 100 (0 no effect, 100 complete control), 13 to 15 d
How it was run: (§2)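 Plants were grown to the 2-leaf stage, pots flooded to 3 cm above soil, and compound applied directly into the paddy water, with the depth held throughout. After 13 to 15 d in a greenhouse, response was rated visually against untreated controls on a 0–100 scale (0 no effect, 100 complete control).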

[8] = test system: barnyardgrass (Echinochloa crus-galli); assay: as above; conditions: 250 g ai/ha, scale 0 to 100 (0 no effect, 100 complete control), 13 to 15 d
How it was run: as §2

[9] = test system: duck salad (Heteranthera limosa); assay: as above; conditions: 250 g ai/ha, scale 0 to 100 (0 no effect, 100 complete control), 13 to 15 d
How it was run: as §2

rice (Oryza sativa) = assay: as above; conditions: 250 g ai/ha, scale 0 to 100 (0 no effect, 100 complete control), 13 to 15 d
How it was run: as §2

[10] = test system: barnyardgrass (Echinochloa crus-galli); assay: Test C postemergence, visual plant response rating; conditions: Test C, postemergence
How it was run: as §1

[11] = test system: blackgrass (Alopecurus myosuroides); assay: Test C postemergence, visual plant response rating; conditions: Test C, postemergence
How it was run: as §1

[12] = test system: wheat (Triticum aestivum); assay: Test C postemergence, visual plant response rating; conditions: Test C, postemergence
How it was run: as §1

[13] = test system: ragweed (common ragweed, Ambrosia artemisiifolia); assay: Test C postemergence, visual plant response rating; conditions: Test C, postemergence
How it was run: as §1

[14] = test system: foxtail, green (green foxtail, Setaria viridis); assay: Test C postemergence, visual plant response rating
How it was run: as §1

kochia (Bassia scoparia) [15] = assay: Test C postemergence, visual plant response rating; conditions: Test C, postemergence
How it was run: as §1

corn (Zea mays) = assay: Test C postemergence, visual plant response rating; conditions: Test C, postemergence
How it was run: as §1

[16] = test system: pigweed (Amaranthus retroflexus); assay: Test C postemergence, visual plant response rating; conditions: Test C, postemergence
How it was run: as §1

[17] = test system: Italian ryegrass (Lolium mutiflorum); assay: Test C postemergence, visual plant response rating; conditions: Test C, postemergence
How it was run: as §1

Question: For `Cc1nn(C)c(=O)c(/C(=N\OCc2ccccc2)c2cccc(Cl)c2)c1O` [Compound 149], which “Barnyardgrass plant response rating (0 to 100 scale)” value (“Barnyardgrass plant response rating” below) ([1]; 125 g ai/ha) is on record?
Answer: Its value is 0.

Question: And the “Barnyardgrass plant response rating” value ([1]; 500 g ai/ha)?
Answer: Its value is 0.

Question: And the “Ragweed plant response rating (0 to 100 scale)” value (shortened to “Ragweed plant response rating”) ([2]; 125 g ai/ha)?
Answer: Its value is 0.

Question: And the “Ragweed plant response rating” value ([2]; 500 g ai/ha)?
Answer: The value was 0.

Question: And the “Foxtail, Green plant response rating (0 to 100 scale)” value (shortened to “Foxtail, Green plant response rating”) ([3]; 125 g ai/ha)?
Answer: The value was 0.

Question: And the “Foxtail, Green plant response rating” value ([3]; 500 g ai/ha)?
Answer: Its value is 0.

Question: And the “Kochia plant response rating (0 to 100 scale)” value (from here on “Kochia plant response rating”) (kochia (Bassia scoparia) [4]; 125 g ai/ha)?
Answer: The value was 0.

Question: And the “Kochia plant response rating” value (kochia (Bassia scoparia) [4]; 500 g ai/ha)?
Answer: Its value is 0.

Question: What about the “Pigweed plant response rating (0 to 100 scale)” value (“Pigweed plant response rating” for short) ([5]; 125 g ai/ha) of the same compound?
Answer: Its value is 0.

Question: And the “Pigweed plant response rating” value ([5]; 500 g ai/ha)?
Answer: Its value is 20.

Question: And the “Ryegrass, Italian plant response rating (0 to 100 scale)” value (from here on “Ryegrass, Italian plant response rating”) ([6]; 125 g ai/ha)?
Answer: The value was 0.

Question: What about the “Ryegrass, Italian plant response rating” value ([6]; 500 g ai/ha) of the same compound?
Answer: Its value is 0.

Question: And the “Plant response rating, Sedge, Umbrella (Flood)” value [7]?
Answer: Its value is 0.

Question: And the “Plant response rating, Barnyardgrass (Flood)” value [8]?
Answer: The value was 0.

Question: And the “Plant response rating, Ducksalad (Flood)” value [9]?
Answer: The value was 0.

Question: What about the “Plant response rating, Rice (Flood)” value (rice (Oryza sativa)) of the same compound?
Answer: The value was 0.

Question: And the “Barnyardgrass plant response rating” value ([10]; 125 g ai/ha)?
Answer: The value was 0.

Question: And the “Barnyardgrass plant response rating” value ([10]; 500 g ai/ha)?
Answer: The value was 0.

Question: What about the “Blackgrass plant response rating (0 to 100 scale)” value ([11]; 125 g ai/ha) of the same compound?
Answer: The value was 0.

Question: What about the “Blackgrass plant response rating (0 to 100 scale)” value ([11]; 500 g ai/ha) of the same compound?
Answer: The value was 0.

Question: What about the “Wheat plant response rating (0 to 100 scale)” value ([12]; 125 g ai/ha) of the same compound?
Answer: Its value is 0.

Question: And the “Wheat plant response rating (0 to 100 scale)” value ([12]; 500 g ai/ha)?
Answer: Its value is 0.

Question: And the “Ragweed plant response rating” value ([13]; 125 g ai/ha)?
Answer: Its value is 0.

Question: And the “Ragweed plant response rating” value ([13]; 500 g ai/ha)?
Answer: The value was 0.

Question: And the “Foxtail, Green plant response rating” value ([14]; 125 g ai/ha)?
Answer: Its value is 0.

Question: What about the “Foxtail, Green plant response rating” value ([14]; 500 g ai/ha) of the same compound?
Answer: The value was 0.

Question: And the “Kochia plant response rating” value (kochia (Bassia scoparia) [15]; 125 g ai/ha)?
Answer: The value was 0.

Question: What about the “Kochia plant response rating” value (kochia (Bassia scoparia) [15]; 500 g ai/ha) of the same compound?
Answer: Its value is 0.

Question: And the “Corn plant response rating (0 to 100 scale)” value (corn (Zea mays); 125 g ai/ha)?
Answer: Its value is 0.

Question: What about the “Corn plant response rating (0 to 100 scale)” value (corn (Zea mays); 500 g ai/ha) of the same compound?
Answer: The value was 0.

Question: What about the “Pigweed plant response rating” value ([16]; 125 g ai/ha) of the same compound?
Answer: The value was 0.

Question: What about the “Pigweed plant response rating” value ([16]; 500 g ai/ha) of the same compound?
Answer: The value was 0.

Question: What about the “Ryegrass, Italian plant response rating” value ([17]; 125 g ai/ha) of the same compound?
Answer: Its value is 0.

Question: What about the “Ryegrass, Italian plant response rating” value ([17]; 500 g ai/ha) of the same compound?
Answer: Its value is 10.

Question: What does the source list for `Cc1nn(C)c(=O)c(/C(=N/OCc2ccccc2)c2cccc(Cl)c2)c1O` [Compound 150]?
Answer: Barnyardgrass plant response rating (0 to 100 scale) ([1]; 500 g ai/ha): 0; Ragweed plant response rating (0 to 100 scale) ([2]; 500 g ai/ha): 80; Foxtail, Green plant response rating (0 to 100 scale) ([3]; 500 g ai/ha): 0; Kochia plant response rating (0 to 100 scale) (kochia (Bassia scoparia) [4]; 500 g ai/ha): 0; Pigweed plant response rating (0 to 100 scale) ([5]; 500 g ai/ha): 0; Ryegrass, Italian plant response rating (0 to 100 scale) ([6]; 500 g ai/ha): 0; Barnyardgrass plant response rating (0 to 100 scale) ([10]; 500 g ai/ha): 0; Blackgrass plant response rating (0 to 100 scale) ([11]; 500 g ai/ha): 0; Wheat plant response rating (0 to 100 scale) ([12]; 500 g ai/ha): 0; Ragweed plant response rating (0 to 100 scale) ([13]; 500 g ai/ha): 20; Foxtail, Green plant response rating (0 to 100 scale) ([14]; 500 g ai/ha): 0; Kochia plant response rating (0 to 100 scale) (kochia (Bassia scoparia) [15]; 500 g ai/ha): 0; Corn plant response rating (0 to 100 scale) (corn (Zea mays); 500 g ai/ha): 0; Pigweed plant response rating (0 to 100 scale) ([16]; 500 g ai/ha): 0; Ryegrass, Italian plant response rating (0 to 100 scale) ([17]; 500 g ai/ha): 10
